{"source": "patent US20030096760A1", "about": "“Method of antagonizing the human SRC SH2 domain” (SmithKlineBeecham Corporation, priority 1997, published 2003)", "target": "T1, human src SH2 domain (Homo sapiens, UniProt P12931)", "T1 construct": "made in house; host or cells: E. coli strain AR120 (vector pEA1KnRBS3)", "T1 sequence (P12931 151-248 limits assumed)": "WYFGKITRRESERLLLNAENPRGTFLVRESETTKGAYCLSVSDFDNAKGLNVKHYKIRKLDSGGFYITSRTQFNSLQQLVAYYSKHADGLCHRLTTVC", "test": "ELISA-based binding assay of human src SH2 domain fusion protein and biotinylated pY peptide", "details": "DET1-DET2-spacer-ek-src SH2 fusion protein; 0.1 uM biotinylated pY peptide; 3 hr at 4° C.; read-out: Activity at cloned human Src SH2 domain (IC50)", "description": "The inhibitory activity of compounds at the human src SH2 domain was determined in vitro using the human src SH2 domain expressed as fusion proteins in E. coli.\nThe fusion protein containing the human SH2 domain was expressed as the general sequence: DET1-DET2-spacer-ek-SH2, where DET1, DET2, spacer, ek and SH2 are as described below. DET1 (“defined epitope tag 1”) (SEQ ID NO: 1) is an 11 amino acid sequence found in the Human Immunodeficiency Virus Type 1 (HIV-1) envelope protein gp120 (or gp160). Monoclonal antibodies to various epitopes of HIV-1 gp120 (or gp160) are known in the art, see, for example U.S. Pat. No. 5,166,050. One preferred example is monoclonal antibody 178.1 (see, e.g., Thiriart et al., J. Immunol., 143:1832-1836 (1989)), which was prepared by immunization of mice with a yeast-expressed HIV-1 gp160 molecule from strain BH10 (Ratner et al., Nature, 313:277-284 (1985)). This tag was used for detection of expression (by Western blot), for purification of the protein (by affinity chromatography), and for configuring assays in which the fusion protein was captured or immobilized using the 178.1 antibody. DET2 is a hexa-histidine sequence tag (SEQ ID NO: 2) which binds to nickel-containing resins and was used for purification purposes. Spacer (SEQ ID NO: 3) was utilized to design a BamH1 restriction site at the indicated position of the construct. […]", "note": "*1 amine or outer side, *2 acyl side, *3 side chain or, on linkers, in order; H or OH if unused. Where a SMILES comes first, the peptide text is derived from it. [ ]: non-standard residue; d: D form. X1 = O=C1OC(O)c2cc(C[C@H](N[*:1])C(=O)[*:2])ccc21", "data": [{"compound": "CC[C@H](C)[C@H](NC(=O)[C@H](CCC(=O)O)NC(=O)[C@H](CCC(=O)O)NC(=O)[C@H](Cc1ccc2c(c1)C(O)OC2=O)NC(C)=O)C(=O)N[C@@H](CCC(=O)O)C(N)=O", "note": "(stereo partly drawn) [Compound 1, (S)-alpha-(acetylamino)-1,3-dihydro-3-hydroxy-1-oxo-5-isobenzofuranpropanamido-glutamate-glutamate-isoleucine-glutamate-amine] (Ac-[X1]EEIE-NH2)", "values": [{"measurement": "IC50", "value": 250, "unit": "nM"}]}]}
